Tests used:
recombinant human PAI-1 = molecular target: T1, recombinant human PAI-1 (Homo sapiens, UniProt P05121); assay: Test Example 1: human PAI-1 inhibitory activity (tPA fluorogenic substrate, pH 7.5 Tris buffer); format: biochemical; settings: Tris buffer
T1 construct: purchased Molecular Innovations, Inc
Method: 50 mM Tris, 150 mM NaCl, 10 μg/ml BSA, 0.01% Tween80 (SIGMA-ALDRICH Corporation)

recombinant rat PAI-1 = molecular target: T2, recombinant rat PAI-1 (Rattus norvegicus, UniProt P20961); assay: Test Example 3: rat PAI-1 inhibitory activity (as Test Example 2 with rat PAI-1); format: biochemical; settings: read-out: Inhibition Rate of PAI-1 Activity (%)
T2 construct: purchased Molecular Innovations, Inc
T2 sequence (P20961 24-402): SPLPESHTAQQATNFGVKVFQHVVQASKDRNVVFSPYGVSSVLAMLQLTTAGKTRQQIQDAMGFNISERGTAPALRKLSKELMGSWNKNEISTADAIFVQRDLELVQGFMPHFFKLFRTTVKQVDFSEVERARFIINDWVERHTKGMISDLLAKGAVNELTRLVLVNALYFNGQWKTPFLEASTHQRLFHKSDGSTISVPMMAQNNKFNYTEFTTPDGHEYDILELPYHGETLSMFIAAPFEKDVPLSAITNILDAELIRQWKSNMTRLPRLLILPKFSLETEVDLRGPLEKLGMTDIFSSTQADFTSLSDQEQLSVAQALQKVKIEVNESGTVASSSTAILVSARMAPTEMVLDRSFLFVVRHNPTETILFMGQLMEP
Method: To this solution, 6 μl of 80 nM recombinant human PAI-1 (Molecular Innovations, Inc.) solution prepared with Tris buffer was added, and the plate was incubated for 5 minutes at room temperature. Furthermore, 30 μl of 800 IU/ml two-chain tPA (Activity Standard; American diagnostica, inc.) prepared with Tris buffer was added, and the mixed solution was incubated for 15 minutes at room temperature. Then, 30 μl of 400 μM fluorogenic substrate (Pyr-Gly-Arg-MCA; Peptide Institute, Inc.) for tPA prepared with Tris buffer was added and reacted for 30 minutes at room temperature.

T1 sequence (P05121 24-402): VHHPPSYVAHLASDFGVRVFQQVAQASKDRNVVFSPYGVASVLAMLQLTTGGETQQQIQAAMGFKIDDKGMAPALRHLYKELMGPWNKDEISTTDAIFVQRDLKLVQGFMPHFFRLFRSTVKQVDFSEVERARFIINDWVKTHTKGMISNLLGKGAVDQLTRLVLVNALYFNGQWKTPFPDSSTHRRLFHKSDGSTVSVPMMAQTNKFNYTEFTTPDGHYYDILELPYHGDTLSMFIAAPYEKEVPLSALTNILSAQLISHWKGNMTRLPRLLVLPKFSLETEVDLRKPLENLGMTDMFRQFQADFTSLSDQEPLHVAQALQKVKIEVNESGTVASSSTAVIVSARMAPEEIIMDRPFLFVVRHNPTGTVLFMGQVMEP

| Compound | Inhibition Rate of PAI-1 Activity (%) (recombinant human PAI-1; Compound Concentration 5 μM) | Inhibition Rate of PAI-1 Activity (%) (recombinant human PAI-1; Compound Concentration 10 μM) | Inhibition Rate of PAI-1 Activity (%) (recombinant human PAI-1; Compound Concentration 25 μM) | inhibition at 10 µM (recombinant rat PAI-1) [%] |
| --- | --- | --- | --- | --- |
| COc1ccc(COc2ccc(-c3ccc(OC(F)(F)F)cc3)cc2CCC(=O)O)cc1 [Compound 60] | 15 | 35 | 25 | – |
| CC(C)(C)c1ccc(CN(C(=O)C(=O)O)c2cc(-c3ccccc3)cc(C(F)(F)F)c2)cc1 [Compound 140] | 6 | 31 | 77 | – |
| Cc1cccc(CN(C(=O)C(=O)O)c2ccc(-c3ccc(OC(F)(F)F)cc3)cc2)c1 [Compound 125] | 15 | 31 | – | – |
| O=C(O)CCc1cc(-c2ccc(OC(F)(F)F)cc2)ccc1OCc1ccc(Cl)cc1Cl [Compound 27] | 5 | 29 | 92 | – |
| CCCOc1ccc(N(CCCc2ccccc2)C(=O)C(=O)O)cc1-c1ccc(OC(F)(F)F)cc1 [Compound 229] | 48 | 80 | 94 | – |
| Cc1ccc(-c2ccc(N(Cc3ccc(C(C)(C)C)cc3)C(=O)C(=O)O)cc2)cc1 [Compound 141] | – | 5 | 52 | – |
| CCCCc1ccc(COc2ccc(-c3ccc(C(C)(C)C)cc3)cc2CCC(=O)O)cc1 [Compound 71] | 51 | 80 | 93 | – |
| O=C(O)/C=C/c1cc(-c2ccc(OC(F)(F)F)cc2)ccc1OCc1cccc(C(F)(F)F)c1 [Compound 57] | 24 | 53 | 82 | – |
| CC(C)(C)c1ccc(CN(C(=O)C(=O)O)c2ccc(-c3ccc(C(F)(F)F)cc3)cc2)cc1 [Compound 145] | 7 | 35 | 74 | – |
| CC(C)(C)c1ccc(COc2ccc(OCc3ccc(OC(F)(F)F)cc3)cc2CCC(=O)O)cc1 [Compound 414] | 33 | 67 | 96 | – |
| O=C(O)CCc1cc(-c2ccc(OC(F)(F)F)cc2)ccc1OCc1ccccc1 [Compound 3] | 35 | 68 | – | – |
| CCCOc1ccc(-c2ccc(OC(F)(F)F)cc2)cc1N(CCCc1ccccc1)C(=O)C(=O)O [Compound 234] | 59 | 83 | 96 | – |
| O=C(O)CCc1cc(-c2ccc(OC(F)(F)F)cc2)ccc1OCCCOc1ccccc1 [Compound 103] | 33 | 57 | 89 | – |
| CC(C)(C)c1ccc(CN(C(=O)C(=O)O)c2ccccc2Sc2ccc(OC(F)(F)F)cc2)cc1 [Compound 631] | 58 | 86 | 86 | – |
| CC(C)(C)c1ccc(COc2ccc(-c3ccc(C(F)(F)F)cc3)cc2/C=C/C(=O)O)cc1 [Compound 35] | 28 | 57 | 95 | – |
| CC(C)(C)c1ccc(N(C(=O)C(=O)O)c2ccccc2-c2ccc(OC(F)(F)F)cc2)cc1 [Compound 157] | 25 | 56 | 96 | – |
| COc1ccccc1-c1ccc(OCc2ccc(C(C)(C)C)cc2)c(/C=C/C(=O)O)c1 [Compound 55] | 21 | 46 | 95 | – |
| CC(C)(C)c1ccc(Oc2ccc(-c3ccc(OC(F)(F)F)cc3)cc2CCC(=O)O)cc1 [Compound 13] | – | – | – | > 99 |
| CCCOc1ccc(N(CCCc2ccccc2)C(=O)C(=O)O)c(-c2ccc(OC(F)(F)F)cc2)c1 [Compound 232] | 52 | 82 | 96 | – |
| Cc1cc(N(C)C)c(-c2ccc(OC(F)(F)F)cc2)cc1N(CCCCc1ccccc1)C(=O)C(=O)O [Compound 246] | 79 | 96 | – | – |
| COc1ccc(CN(C(=O)C(=O)O)c2ccc(-c3ccc(OC(F)(F)F)cc3)cc2)cc1 [Compound 131] | – | 10 | 34 | – |
| CC(C)(C)c1ccc(-c2ccc(OCc3cccc(OC(F)(F)F)c3)c(CCC(=O)O)c2)cc1 [Compound 68] | 40 | 74 | 95 | – |
